Measured values as given in the kinase profiling compilation of Christmann-Franck et al. (2016).

Legend:
Experiment in all cases: KINOMEscan competition binding
Details in all cases: compound 10.0 µM
PRKCH (human) = PRKCH (human) (UniProt P24723)
GAK (human) = GAK (human) (UniProt O14976)
YSK4 (human) = YSK4 (human) (UniProt Q56UN5)
RPS6KA6 KD2 (human) = RPS6KA6 KD2 (human) (UniProt Q9UK32)
CAMK1G (human) = CAMK1G (human) (UniProt Q96NX5)
MAP3K4 (human) = MAP3K4 (human) (UniProt Q9Y6R4)
FLT3 (human) = FLT3 (human) (UniProt P36888)
GSK3B (human) = GSK3B (human) (UniProt P49841)
PKN2 (human) = PKN2 (human) (UniProt Q16513)
PLK2 (human) = PLK2 (human) (UniProt Q9NYY3)
AAK1 (human) = AAK1 (human) (UniProt Q2M2I8)
CAMK2A (human) = CAMK2A (human) (UniProt Q9UQM7)
GRK7 (human) = GRK7 (human) (UniProt Q8WTQ7)
HIPK4 (human) = HIPK4 (human) (UniProt Q8NE63)
CSK (human) = CSK (human) (UniProt P41240)
CIT (human) = CIT (human) (UniProt O14578)
INSRR (human) = INSRR (human) (UniProt P14616)
RPS6KA4 KD2 (human) = RPS6KA4 KD2 (human) (UniProt O75676)
PRKG1 (human) = PRKG1 (human) (UniProt Q13976)
SRMS (human) = SRMS (human) (UniProt Q9H3Y6)
IKBKE (human) = IKBKE (human) (UniProt Q14164)
TEK (human) = TEK (human) (UniProt Q02763)
MYO3A (human) = MYO3A (human) (UniProt Q8NEV4)
DAPK2 (human) = DAPK2 (human) (UniProt Q9UIK4)
LTK (human) = LTK (human) (UniProt P29376)
STK4 (human) = STK4 (human) (UniProt Q13043)
CHEK2 (human) = CHEK2 (human) (UniProt O96017)
NEK7 (human) = NEK7 (human) (UniProt Q8TDX7)
MAPK7 (human) = MAPK7 (human) (UniProt Q13164)
FGFR4 (human) = FGFR4 (human) (UniProt P22455)
HIPK1 (human) = HIPK1 (human) (UniProt Q86Z02)
[1] = biological target: JAK1 JH1 catalytic (human) (UniProt P23458)
CDKL2 (human) = CDKL2 (human) (UniProt Q92772)
[2] = biological target: JAK2 JH1 catalytic (human) (UniProt O60674)
MAP2K5 (human) = MAP2K5 (human) (UniProt Q13163)
AXL (human) = AXL (human) (UniProt P30530)
MAK (human) = MAK (human) (UniProt P20794)
CAMK2B (human) = CAMK2B (human) (UniProt Q13554)
DCLK1 (human) = DCLK1 (human) (UniProt O15075)
MAPK10 (human) = MAPK10 (human) (UniProt P53779)

Chain of MAPK7 (human) (Q13164 whole entry, looked up): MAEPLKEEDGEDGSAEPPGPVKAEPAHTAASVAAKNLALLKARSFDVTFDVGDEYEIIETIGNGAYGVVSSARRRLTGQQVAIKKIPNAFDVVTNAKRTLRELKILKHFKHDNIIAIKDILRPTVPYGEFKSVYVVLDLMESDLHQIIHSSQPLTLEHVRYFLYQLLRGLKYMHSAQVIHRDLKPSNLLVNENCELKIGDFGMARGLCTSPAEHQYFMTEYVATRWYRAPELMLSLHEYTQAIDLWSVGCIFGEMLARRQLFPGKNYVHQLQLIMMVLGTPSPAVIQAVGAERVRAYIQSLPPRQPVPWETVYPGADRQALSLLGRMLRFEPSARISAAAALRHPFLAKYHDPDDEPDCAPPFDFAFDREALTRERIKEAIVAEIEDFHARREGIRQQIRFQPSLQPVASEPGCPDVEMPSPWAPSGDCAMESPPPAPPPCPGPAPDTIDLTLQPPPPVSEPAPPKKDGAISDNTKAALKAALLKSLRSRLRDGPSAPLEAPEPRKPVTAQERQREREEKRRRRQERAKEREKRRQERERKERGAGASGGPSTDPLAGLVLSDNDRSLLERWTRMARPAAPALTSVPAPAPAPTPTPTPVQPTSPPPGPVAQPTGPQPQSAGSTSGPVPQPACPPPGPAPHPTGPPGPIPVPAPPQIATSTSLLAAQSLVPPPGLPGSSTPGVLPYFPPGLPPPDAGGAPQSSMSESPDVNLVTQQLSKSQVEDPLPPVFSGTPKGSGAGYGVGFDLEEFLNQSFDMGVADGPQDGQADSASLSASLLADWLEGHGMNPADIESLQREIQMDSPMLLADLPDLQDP
Chain of CAMK2B (human) (Q13554 whole entry, looked up): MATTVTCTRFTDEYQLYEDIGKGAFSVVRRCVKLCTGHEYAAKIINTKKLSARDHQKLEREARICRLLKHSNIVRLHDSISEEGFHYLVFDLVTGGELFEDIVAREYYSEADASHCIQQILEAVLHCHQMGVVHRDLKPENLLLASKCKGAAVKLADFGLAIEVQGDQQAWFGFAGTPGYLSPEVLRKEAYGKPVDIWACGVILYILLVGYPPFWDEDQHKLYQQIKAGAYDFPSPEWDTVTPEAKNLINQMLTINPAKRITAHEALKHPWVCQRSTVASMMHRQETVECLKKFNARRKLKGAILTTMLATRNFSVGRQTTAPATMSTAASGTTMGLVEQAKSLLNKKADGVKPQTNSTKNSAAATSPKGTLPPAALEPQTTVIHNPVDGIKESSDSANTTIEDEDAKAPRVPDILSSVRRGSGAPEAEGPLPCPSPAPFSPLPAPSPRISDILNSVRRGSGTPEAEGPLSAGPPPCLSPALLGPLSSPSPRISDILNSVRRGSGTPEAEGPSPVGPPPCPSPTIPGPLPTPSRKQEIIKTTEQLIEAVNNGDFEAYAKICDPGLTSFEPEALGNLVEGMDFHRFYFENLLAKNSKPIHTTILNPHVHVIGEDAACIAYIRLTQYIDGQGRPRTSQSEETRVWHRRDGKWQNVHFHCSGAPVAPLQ
Chain of PLK2 (human) (Q9NYY3 whole entry, looked up): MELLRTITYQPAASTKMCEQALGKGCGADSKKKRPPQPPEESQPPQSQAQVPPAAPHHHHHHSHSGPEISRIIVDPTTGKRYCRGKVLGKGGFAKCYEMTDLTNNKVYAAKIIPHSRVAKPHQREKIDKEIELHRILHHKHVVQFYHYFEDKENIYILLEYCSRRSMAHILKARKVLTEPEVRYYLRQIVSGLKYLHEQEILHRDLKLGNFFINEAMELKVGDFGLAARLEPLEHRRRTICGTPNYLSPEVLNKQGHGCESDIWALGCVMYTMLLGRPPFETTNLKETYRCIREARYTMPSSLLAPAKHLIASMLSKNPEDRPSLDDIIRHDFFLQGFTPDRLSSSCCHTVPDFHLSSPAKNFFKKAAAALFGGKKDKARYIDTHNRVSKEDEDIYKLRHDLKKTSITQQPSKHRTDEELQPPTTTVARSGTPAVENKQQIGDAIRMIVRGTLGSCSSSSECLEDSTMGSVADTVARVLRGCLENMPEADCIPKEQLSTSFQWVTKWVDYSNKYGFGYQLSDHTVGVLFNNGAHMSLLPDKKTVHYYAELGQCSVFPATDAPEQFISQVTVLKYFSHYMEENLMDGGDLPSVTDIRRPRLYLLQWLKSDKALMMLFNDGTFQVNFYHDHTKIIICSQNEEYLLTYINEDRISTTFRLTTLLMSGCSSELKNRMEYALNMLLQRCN
Chain of INSRR (human) (P14616 whole entry, looked up): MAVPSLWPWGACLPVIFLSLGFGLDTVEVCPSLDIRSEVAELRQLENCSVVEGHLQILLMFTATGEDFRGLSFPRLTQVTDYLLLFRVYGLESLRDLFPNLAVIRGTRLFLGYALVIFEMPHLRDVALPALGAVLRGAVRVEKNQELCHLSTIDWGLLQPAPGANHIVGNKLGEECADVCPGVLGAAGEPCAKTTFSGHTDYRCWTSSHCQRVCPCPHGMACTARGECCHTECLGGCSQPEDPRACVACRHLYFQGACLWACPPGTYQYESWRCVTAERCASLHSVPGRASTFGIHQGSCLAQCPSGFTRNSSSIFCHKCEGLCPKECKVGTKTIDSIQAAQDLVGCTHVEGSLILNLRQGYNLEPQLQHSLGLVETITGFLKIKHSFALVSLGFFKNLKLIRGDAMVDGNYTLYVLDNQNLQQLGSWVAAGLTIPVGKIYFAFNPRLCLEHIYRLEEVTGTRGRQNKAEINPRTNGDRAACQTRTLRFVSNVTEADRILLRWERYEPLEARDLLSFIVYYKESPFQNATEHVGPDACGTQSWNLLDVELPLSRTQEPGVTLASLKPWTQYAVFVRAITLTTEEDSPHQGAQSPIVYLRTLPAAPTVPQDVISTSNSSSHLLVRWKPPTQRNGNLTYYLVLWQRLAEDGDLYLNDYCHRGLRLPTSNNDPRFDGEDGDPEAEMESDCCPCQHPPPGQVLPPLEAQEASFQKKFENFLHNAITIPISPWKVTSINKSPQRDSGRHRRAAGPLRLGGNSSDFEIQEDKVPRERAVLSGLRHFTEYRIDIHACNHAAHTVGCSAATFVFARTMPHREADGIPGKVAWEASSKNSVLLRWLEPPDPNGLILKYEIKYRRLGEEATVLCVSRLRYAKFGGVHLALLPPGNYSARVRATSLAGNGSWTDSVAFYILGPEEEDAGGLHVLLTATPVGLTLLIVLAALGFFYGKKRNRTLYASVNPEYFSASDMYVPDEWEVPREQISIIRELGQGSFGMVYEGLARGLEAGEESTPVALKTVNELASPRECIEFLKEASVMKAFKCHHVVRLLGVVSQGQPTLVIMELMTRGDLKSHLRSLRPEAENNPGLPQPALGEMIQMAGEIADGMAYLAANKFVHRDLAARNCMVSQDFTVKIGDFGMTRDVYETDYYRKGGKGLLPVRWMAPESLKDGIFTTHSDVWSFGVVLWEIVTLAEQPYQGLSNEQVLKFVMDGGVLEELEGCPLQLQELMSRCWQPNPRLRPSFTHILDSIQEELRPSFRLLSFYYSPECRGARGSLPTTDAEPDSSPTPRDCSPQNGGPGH
Chain of CHEK2 (human) (O96017 whole entry, looked up): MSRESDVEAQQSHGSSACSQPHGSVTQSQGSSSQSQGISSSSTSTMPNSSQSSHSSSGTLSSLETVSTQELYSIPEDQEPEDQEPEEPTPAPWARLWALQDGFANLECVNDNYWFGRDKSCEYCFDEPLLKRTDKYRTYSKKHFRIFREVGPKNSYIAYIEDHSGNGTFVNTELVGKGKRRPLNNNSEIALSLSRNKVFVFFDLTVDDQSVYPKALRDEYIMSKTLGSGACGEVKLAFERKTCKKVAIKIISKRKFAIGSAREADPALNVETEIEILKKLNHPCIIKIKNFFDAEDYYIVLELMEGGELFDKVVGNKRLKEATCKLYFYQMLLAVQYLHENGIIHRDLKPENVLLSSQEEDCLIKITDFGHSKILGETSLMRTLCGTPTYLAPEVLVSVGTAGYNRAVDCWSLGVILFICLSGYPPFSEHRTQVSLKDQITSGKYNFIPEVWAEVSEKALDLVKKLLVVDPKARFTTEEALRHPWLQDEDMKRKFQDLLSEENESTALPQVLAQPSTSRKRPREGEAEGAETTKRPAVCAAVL
Chain of IKBKE (human) (Q14164 whole entry, looked up): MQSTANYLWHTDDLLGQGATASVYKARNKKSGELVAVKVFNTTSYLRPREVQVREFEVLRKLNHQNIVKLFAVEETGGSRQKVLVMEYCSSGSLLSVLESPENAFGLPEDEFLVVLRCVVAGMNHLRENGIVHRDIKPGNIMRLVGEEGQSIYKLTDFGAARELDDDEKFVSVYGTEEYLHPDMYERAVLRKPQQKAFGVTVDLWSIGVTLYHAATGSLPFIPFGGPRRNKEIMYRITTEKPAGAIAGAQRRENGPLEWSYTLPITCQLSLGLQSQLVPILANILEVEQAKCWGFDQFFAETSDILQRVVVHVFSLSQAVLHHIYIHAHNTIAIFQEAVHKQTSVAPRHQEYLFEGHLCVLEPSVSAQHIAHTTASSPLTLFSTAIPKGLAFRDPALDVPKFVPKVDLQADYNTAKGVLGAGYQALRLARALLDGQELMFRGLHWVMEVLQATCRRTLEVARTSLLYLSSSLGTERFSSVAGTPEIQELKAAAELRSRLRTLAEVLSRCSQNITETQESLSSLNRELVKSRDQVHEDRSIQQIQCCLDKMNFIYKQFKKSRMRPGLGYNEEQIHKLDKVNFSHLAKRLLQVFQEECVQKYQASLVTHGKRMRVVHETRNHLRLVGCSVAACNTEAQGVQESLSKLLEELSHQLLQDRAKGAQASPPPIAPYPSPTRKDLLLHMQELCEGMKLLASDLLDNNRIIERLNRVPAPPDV
Chain of NEK7 (human) (Q8TDX7 whole entry, looked up): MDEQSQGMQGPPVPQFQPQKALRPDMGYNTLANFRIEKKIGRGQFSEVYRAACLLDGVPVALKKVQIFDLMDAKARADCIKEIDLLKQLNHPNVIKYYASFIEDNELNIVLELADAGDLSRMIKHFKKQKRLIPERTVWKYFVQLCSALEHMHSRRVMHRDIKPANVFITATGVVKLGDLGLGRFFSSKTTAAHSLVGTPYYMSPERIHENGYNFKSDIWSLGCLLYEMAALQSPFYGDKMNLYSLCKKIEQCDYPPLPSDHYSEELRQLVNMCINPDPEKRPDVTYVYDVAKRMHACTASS

| Structure (SMILES) | kinase still bound, per cent of control (PRKCH (human)) [%] | kinase still bound, per cent of control (GAK (human)) [%] | kinase still bound, per cent of control (YSK4 (human)) [%] | kinase still bound, per cent of control (RPS6KA6 KD2 (human)) [%] | kinase still bound, per cent of control (CAMK1G (human)) [%] | kinase still bound, per cent of control (MAP3K4 (human)) [%] | kinase still bound, per cent of control (FLT3 (human)) [%] | kinase still bound, per cent of control (GSK3B (human)) [%] | kinase still bound, per cent of control (PKN2 (human)) [%] | kinase still bound, per cent of control (PLK2 (human)) [%] | kinase still bound, per cent of control (CAMK2A (human)) [%] | kinase still bound, per cent of control (GRK7 (human)) [%] | kinase still bound, per cent of control (HIPK4 (human)) [%] | kinase still bound, per cent of control (CSK (human)) [%] | kinase still bound, per cent of control (CIT (human)) [%] | kinase still bound, per cent of control (INSRR (human)) [%] | kinase still bound, per cent of control (RPS6KA4 KD2 (human)) [%] | kinase still bound, per cent of control (SRMS (human)) [%] | kinase still bound, per cent of control (IKBKE (human)) [%] | kinase still bound, per cent of control (TEK (human)) [%] | other results |
| --- | --- | --- | --- | --- | --- | --- | --- | --- | --- | --- | --- | --- | --- | --- | --- | --- | --- | --- | --- | --- | --- |
| N#C/C(=C1/Nc2ccccc2S1)c1ccnc(NCCc2cccnc2)n1 | 100 | 4.6 | 3.2 | 52 | 61 | 100 | 100 | 0.15 | 100 | 47 | 46 | 47 | 42 | 88 | 59 | 100 | 57 | 2.4 | 100 | 100 | kinase still bound, per cent of control (AAK1 (human)): 10%; kinase still bound, per cent of control (PRKG1 (human)): 100%; kinase still bound, per cent of control (MYO3A (human)): 80%; kinase still bound, per cent of control (DAPK2 (human)): 34%; kinase still bound, per cent of control (LTK (human)): 100%; kinase still bound, per cent of control (STK4 (human)): 100%; kinase still bound, per cent of control (CHEK2 (human)): 94%; kinase still bound, per cent of control (NEK7 (human)): 84%; kinase still bound, per cent of control (MAPK7 (human)): 100%; kinase still bound, per cent of control (FGFR4 (human)): 100%; kinase still bound, per cent of control (HIPK1 (human)): 1.2%; kinase still bound, per cent of control [1]: 100%; kinase still bound, per cent of control (CDKL2 (human)): 98%; kinase still bound, per cent of control [2]: 45%; kinase still bound, per cent of control (MAP2K5 (human)): 0.8%; kinase still bound, per cent of control (AXL (human)): 100%; kinase still bound, per cent of control (MAK (human)): 100%; kinase still bound, per cent of control (CAMK2B (human)): 49%; kinase still bound, per cent of control (DCLK1 (human)): 78% |
| CCN(CCO)CCCOc1ccc2c(Nc3cc(CC(=O)Nc4cccc(F)c4)[nH]n3)ncnc2c1 | 100 | 21 | 39 | 64 | 73 | 90 | 0.4 | 100 | 86 | 93 | 78 | 54 | 4.5 | 24 | 27 | 76 | 79 | 29 | 51 | 13 | kinase still bound, per cent of control (MYO3A (human)): 81%; kinase still bound, per cent of control (DAPK2 (human)): 89%; kinase still bound, per cent of control (LTK (human)): 17%; kinase still bound, per cent of control (STK4 (human)): 40%; kinase still bound, per cent of control (CHEK2 (human)): 100%; kinase still bound, per cent of control (NEK7 (human)): 94%; kinase still bound, per cent of control (MAPK7 (human)): 87%; kinase still bound, per cent of control (FGFR4 (human)): 100%; kinase still bound, per cent of control (MAPK10 (human)): 41%; kinase still bound, per cent of control (HIPK1 (human)): 40%; kinase still bound, per cent of control [1]: 100%; kinase still bound, per cent of control (CDKL2 (human)): 18%; kinase still bound, per cent of control [2]: 58%; kinase still bound, per cent of control (MAP2K5 (human)): 0.4%; kinase still bound, per cent of control (AXL (human)): 1.4%; kinase still bound, per cent of control (MAK (human)): 92%; kinase still bound, per cent of control (CAMK2B (human)): 84%; kinase still bound, per cent of control (DCLK1 (human)): 51% |
